# Data as given in patent publication US20200024223A1, “CRYSTALLINE SALTS OF (4S,4AS,5AR,12AS)-4-DIMETHYLAMINO-3,10,12,12A-TETRAHYDROXY-7-[(METHOXY(METHYL)AMINO)-METHYL]-1,11-DIOXO-1,4,4A,5,5A,6,11,12A-OCTAHYDRO-NAPHTHACENE-2-CARBOXYLIC ACID AMIDE AND METHODS OF USING THE SAME” (priority 2011, published 2020).
# Like-named read-outs stand apart in the source and are kept apart here.
# Assays:
# [1] = Differential scanning calorimetry (DSC); format: physicochemical
# Description: DSC analysis as disclosed herein was collected on a TA Instruments Q2000 equipped with a 50 position auto-sampler. The instrument was calibrated for energy and temperature using certified indium. The calibration for thermal capacity was carried out using sapphire. […] A nitrogen purge at 50 ml.min^−1 was maintained over the sample. The instrument control software used was Advantage for Q Series v2.8.0.392 and Thermal Advantage v4.8.3 and the data was analyzed using Universal Analysis v4.4A. […] The observed apparent weight loss is due to instability of the machine. Table 5 below compares the DSC and TGA analysis of the crystalline salts of the present invention with the crystalline free base and Comparative Example 1.
# [2] = Storage stability by HPLC-UV (chemical purity, β-isomer content, total impurity content); format: physicochemical
# Description: The lower the β-isomer content, the higher the chemical purity of the salt. The β-isomer content is measured after synthesis of the salt and compared with the measured β-isomer content after storage for a designated period of time.
# Another measure of chemical purity is defined by the content of other related impurities, by-products or degradation products of the salt, which represents the […] of the compound. The lower the content of total impurities as measured by HPLC, generally, by HPLC-UV, the higher the chemical purity of the salt. The total impurity content is measured after synthesis of the salt and compared with the measured total impurity content after storage for a designated period of time.
# In order to determine the stability of Crystalline Mono Hydrochloride Salt, the β-isomer content of the salt was determined by HPLC-UV analysis and compared to the β-isomer content calculated after the salt was stored in an amber glass vial for approximately 75 days at ambient conditions.
# The β-isomer content of Comparative Example 2 was also determined by HPLC-UV analysis at 0 days and compared to the β-isomer content calculated after the compound was stored in a clear glass vial for approximately 75 days at ambient conditions.
# HPLC-UV and XRPD analysis were conducted on samples of Crystalline Mono Hydrochloride Salt, Crystalline Mesylate Salt and Crystalline Sulfate Salt at 0 days and after storage for 7 days at 40° C. and 75% RH. FIGS. 1, 4 and 7 show the XRPD analysis of the Crystalline Mono Hydrochloride Salt, Crystalline Mesylate Salt and Crystalline Sulfate Salt at 0 days and after storage at 40° C. and 75% RH with the graphs overlaid for comparison.
# The results of HPLC-UV analysis for the same samples of Crystalline Mesylate Salt and Crystalline Sulfate Salt are shown in Table 4.
# [3] = Thermo-gravimetric analysis (TGA); format: physicochemical
# Description: TGA is used to determine changes in weight in relation to change in temperature, which may reveal degradation of the compound and the presence of solvates or hydrates. TGA analysis as disclosed herein was collected on a TA Instruments Q500 TGA equipped with a 16 position auto-sampler. The instrument was temperature calibrated using certified Alumel and Nickel. […] A nitrogen purge at 60 ml.min^−1 was maintained over the sample. The instrument control and data analysis software used was Advantage for Q Series v2.8.0.392 and Thermal Advantage v4.8.3 and the data was analyzed using Universal Analysis v4.4A. […] The observed apparent weight loss is due to instability of the machine. Table 5 below compares the DSC and TGA analysis of the crystalline salts of the present invention with the crystalline free base and Comparative Example 1.
# E. coli = experiment: In vitro MIC testing, antibacterial spectrum of activity; format: cell-based
# S. aureus RN450-1 [4] = experiment: S. aureus Thigh Wound Infection Model; format: in vivo; conditions: Staphylococcus aureus, RN4501, in Mus musculus, iv, read-out: S. aureus RN450-1 Thigh ED50
# Description: Bacterial cultures were prepared by growing S. aureus RN450-1 overnight and diluting with sterile PBS. An injection of 100 μL of ˜1×10^6 CFU/mL in sterile PBS was injected into the thigh. Four groups of mice for each drug received doses of 0.33, 1, 3, or 9 mg/kg intravenously at 2 and 6 hours post infection. An additional group of untreated mice served as a negative control group. At 24 hours post infection, the thighs were collected aseptically, homogenized, and plated to enumerate bacterial load per thigh. Data are reported as ED50 values.
# Salmonella spp. = experiment: In vitro MIC testing, antibacterial spectrum of activity; format: cell-based
# S. aureus RN450-1 [5] = experiment: S. aureus Systemic Intraperitoneal Challenge (IPC) Model; format: in vivo; conditions: CD-1 male mice, single SC dose 1 hour post infection, survival at 48 hours post infection
# Description: Bacterial cultures were prepared by growing tetracycline-sensitive S. aureus RN450-1 overnight, then diluting with sterile phosphate-buffered saline (PBS). For each experiment, a total of 30 mice were infected by injection into the intraperitoneal cavity with 500 μl of 7.5×10^7 CFU in 5% sterile bacteriological mucin. […] The doses were administered subcutaneously (SC) at 1 hour post infection. An additional infected group of 5 mice was included as a negative control (untreated) group. For all studies but one, a positive control group(s) was included (e.g., doxycycline, minocycline, or ciprofloxacin). Mice were monitored for survival for up to 7 days. […] PD50 (protective dose, 50%) is the dose required to achieve 50% survival. The PD50 values reported are a mean of 2-3 independent experiments for each drug tested.
# [6] = test system: Carrageenan-Induced Rat Footpad Edema; experiment: Rat Carrageenan-Induced Footpad Edema inflammation model; format: in vivo; conditions: 3 hours post carrageenan
# Description: Immediately following the carrageenan injection and 3 hours post-injection, the hind paw volume was measured with a digital water plethysmometer. Results were calculated as a percent change in paw volume over the 3 hours, divided by the baseline paw volume, and then adjusted for the mean percent inflammation in the untreated controls, and are presented in Table 10.
# S. pneumoniae PBS 1339 = conditions: neutropenic CD-1 male mice, single IV dose 2 hours post infection, survival at 72 hours post infection
# [7] = test system: Prevotella melaninogenica; experiment: In vitro MIC testing against anaerobic bacteria; format: cell-based
# [8] = test system: Streptococcus constellatus; experiment: In vitro MIC testing against anaerobic bacteria; format: cell-based; conditions: ATCC27823
# S. agalactiae = experiment: In vitro MIC testing, antibacterial spectrum of activity; format: cell-based; conditions: Streptococcus agalactiae, S. agalactiae
# E. cloacae = experiment: as above; format: cell-based; conditions: Enterobacter cloacae, 7 of 30 strains inhibited
# S. pneumoniae = experiment: as above; format: cell-based, Streptococcus pneumoniae; conditions: Streptococcus pneumoniae, PSSP, all but 3 strains inhibited
# S. pyogenes = experiment: as above; format: cell-based; conditions: Streptococcus pyogenes, S. pyogenes
# E. faecium = experiment: as above; format: cell-based; conditions: Enterococcus faecium, vancomycin-susceptible E. faecium
# Staphylococcus aureus = experiment: Inhibition of macromolecular synthesis in Staphylococcus aureus (whole-cell assay); format: cell-based; conditions: S. aureus, at 8-fold the MIC
# [9] = test system: Streptococcus spp. [Group C]; experiment: In vitro MIC testing, antibacterial spectrum of activity; format: cell-based; conditions: Streptococcus, Group C streptococci
# [10] = Escherichia coli, read-out: MIC50
# [11] = Escherichia coli, read-out: MIC90
structure (smiles),measurement,setting,value
"CON(C)Cc1ccc(O)c2c1C[C@H]1C[C@H]3[C@H](N(C)C)C(O)=C(C(N)=O)C(=O)[C@@]3(O)C(O)=C1C2=O [Comparative Example 1, (4S,4aS,5aR,12aS)-4-dimethylamino-3,10,12,12a-tetrahydroxy-7-[(methoxy(methyl)amino)-methyl]-1,11-dioxo-1,4,4a,5,5a,6,11,12a-octahydro-naphthacene-2-carboxylic acid amide]",Differential Scanning Calorimetry,[1]; after synthesis,Broad endothermic
same,β-isomer content at 0 days,[2]; 0 days,3.6 % peak area
same,β-isomer content after storage,[2]; 48 hours at about 40° C. and about 75% RH,31.7 % peak area
same,β-isomer content after storage,[2]; 36 days at about 25° C. and about 60% RH,8.7 % peak area
same,total impurity content at 0 days,"[2]; HPLC-UV, 0 days",4.2 % peak area
same,total impurity content after storage,[2]; about 2 days at about 40° C. and about 75% RH,34.6 % peak area
same,TGA weight loss,[3]; from about 30° C. to about 106° C.,7% weight loss from about 30 °C to
same,TGA weight loss,[3]; from about 106° C. to about 200° C.,8% weight loss from about 106 °C
same,TGA weight loss,[3]; from about 200° C. to about 300° C.,23% weight loss from about 200 °C
"CON(C)Cc1ccc(O)c2c1C[C@H]1C[C@H]3[C@H](N(C)C)C(O)=C(C(N)=O)C(=O)[C@@]3(O)C(O)=C1C2=O [Crystalline Free Base, (4S,4aS,5aR,12aS)-4-dimethylamino-3,10,12,12a-tetrahydroxy-7-[(methoxy(methyl)amino)-methyl]-1,11-dioxo-1,4,4a,5,5a,6,11,12a-octahydro-naphthacene-2-carboxylic acid amide]",DSC endothermic peak,[1],175 °C (ΔH 72 J · g^−1)
same,TGA weight loss,[3]; from about 30° C. to decomposition at less than 220° C.,15% weight loss from about 30 °C
"C[C@H]1c2cccc(O)c2C(=O)C2=C(O)[C@]3(O)C(=O)C(C(N)=O)=C(O)[C@@H](N(C)C)[C@@H]3[C@@H](O)[C@@H]21 [Doxycycline, doxycycline]",MIC Range,E. coli,64-64 μg/mL
same,MIC,E. coli; Escherichia coli,64 µg/mL
same,MIC50,E. coli; [10],2 µg/mL
same,MIC90,E. coli; [11],32 µg/mL
same,ED50,S. aureus RN450-1 [4],8.31 mg/kg
same,MIC50,Salmonella spp.,2 µg/mL
same,MIC90,Salmonella spp.,32 µg/mL
same,S. aureus RN450-1 IPC PD50,S. aureus RN450-1 [5],0.30 mg/kg
same,Mean Percent Inflammation Compared to Untreated Controls,[6]; 75 mg/kg IP,68%
same,Mean Percent Inflammation Compared to Untreated Controls,[6]; 100 mg/kg IP,36%
same,S. pneumoniae PBS1339 RTI PD50,S. pneumoniae PBS 1339,7.18 mg/kg
"CN(C)c1ccc(O)c2c1C[C@H]1C[C@H]3[C@H](N(C)C)C(O)=C(C(N)=O)C(=O)[C@@]3(O)C(O)=C1C2=O [Minocycline, minocycline]",MIC Range,E. coli,8 to 16 µg/mL
same,MIC,E. coli; Escherichia coli,16 µg/mL
same,MIC50,E. coli; [10],1 µg/mL
same,MIC90,E. coli; [11],8 µg/mL
same,MIC,[7],16 µg/mL
same,MIC90,Salmonella spp.,8 µg/mL
same,S. aureus RN450-1 IPC PD50,S. aureus RN450-1 [5],0.03 mg/kg
same,Mean Percent Inflammation Compared to Untreated Controls,[6]; 25 mg/kg IP,47%
same,Mean Percent Inflammation Compared to Untreated Controls,[6]; 50 mg/kg IP,33%
same,Mean Percent Inflammation Compared to Untreated Controls,[6]; 75 mg/kg IP,54%
same,Mean Percent Inflammation Compared to Untreated Controls,[6]; 100 mg/kg IP,21%
same,MIC,[8],16 µg/mL
"CON(C)Cc1ccc(O)c2c1C[C@H]1C[C@H]3[C@H](N(C)C)C(O)=C(C(N)=O)C(=O)[C@@]3(O)C(O)=C1C2=O [The Active, (4S,4aS,5aR,12aS)-4-dimethylamino-3,10,12,12a-tetrahydroxy-7-[(methoxy(methyl)amino)-methyl]-1,11-dioxo-1,4,4a,5,5a,6,11,12a-octahydro-naphthacene-2-carboxylic acid amide]",MIC50,E. coli,16 µg/mL
same,MIC90,E. coli,> 64 µg/mL
same,MIC50,"E. coli; Escherichia coli, E. coli (33 isolates), read-out: MIC50",16 µg/mL
same,ED50,S. aureus RN450-1 [4],8.23 mg/kg
same,MIC,S. agalactiae; 7 strains inhibited,≤ 0.25 µg/mL
same,MIC,S. agalactiae; remainder of the isolates,16 to 32 µg/mL
same,MIC,E. cloacae,≤ 1 µg/mL
same,MIC,S. pneumoniae,≤ 0.25 µg/mL
same,MIC50,Salmonella spp.,16 µg/mL
same,MIC,S. pyogenes; all but 6 strains inhibited,≤ 0.25 µg/mL
same,MIC,S. pyogenes; elevated MICs for 5 strains,≥ 4 µg/mL
same,S. aureus RN450-1 IPC PD50,S. aureus RN450-1 [5],0.25 mg/kg
same,Mean Percent Inflammation Compared to Untreated Controls,[6]; 1 mg/kg IP,103%
same,Mean Percent Inflammation Compared to Untreated Controls,[6]; 5 mg/kg IP,78%
same,Mean Percent Inflammation Compared to Untreated Controls,[6]; 10 mg/kg IP,65%
same,Mean Percent Inflammation Compared to Untreated Controls,[6]; 25 mg/kg IP,59%
same,Mean Percent Inflammation Compared to Untreated Controls,[6]; 50 mg/kg IP,52%
same,Mean Percent Inflammation Compared to Untreated Controls,[6]; 75 mg/kg IP,56%
same,Mean Percent Inflammation Compared to Untreated Controls,[6]; 100 mg/kg IP,53%
same,Mean Percent Inflammation Compared to Untreated Controls,[6]; 150 mg/kg IP,26%
same,S. pneumoniae PBS1339 RTI PD50,S. pneumoniae PBS 1339,4.66 mg/kg
same,MIC,E. faecium; 17 strains inhibited,≤ 0.5 µg/mL
same,MIC,E. faecium; remainder of the isolates,16 to 32 µg/mL
same,"inhibition for the synthesis of cell wall, DNA, RNA and lipid components",Staphylococcus aureus,less than 20%
same,MIC,[9]; 19 strains inhibited,≤ 0.25 µg/mL
same,MIC,[9]; remainder of the isolates,4 to 16 µg/mL
